Experimental data reported in US20260250322A1, “NEW PEPTIDES AS SELECTIVE IL-23 RECEPTOR INHIBITORS” (SANOFI, priority 2023, published 2026).
Bridge positions count the residues as written; N and C are the ends. Square brackets hold non-standard residues; d marks the D form. Peptide text beside a SMILES is read from it. 1Nal = N[C@@H](Cc1cccc2ccccc12)C(=O)O; 2Nal = N[C@@H](Cc1ccc2ccccc2c1)C(=O)O; Cit = NC(=O)NCCC[C@H](N)C(=O)O; Orn = NCCC[C@H](N)C(=O)O; Aib = CC(C)(N)C(=O)O

How the values were obtained:
[1] = Protease stability in simulated intestinal fluids (FaSSIF); format: in vitro ADME; details: 37° C.; for FaSSIF 0 (min), remaining percentage of peptide compound: 0 min (set to 100%), 1 μM; for remaining at 1 h, 1 μM / remaining at 2 h, 1 μM / remaining at 4 h, 1 μM: simulated intestinal fluid (FaSSIF), protease stability; for remaining at 1 h, 1 μM: 60 min, read-out: FaSSIF 60 (min), remaining percentage of peptide compound; for remaining at 2 h, 1 μM: 120 min, read-out: FaSSIF 120 (min), remaining percentage of peptide compound; for remaining at 4 h, 1 μM: 240 min, read-out: FaSSIF 240 (min), remaining percentage of peptide compound
Protocol: Studies were carried out in simulated intestinal fluid (SIF) and simulated gastric fluid (SGF) to evaluate gastric stability of the peptide compounds of the disclosure. […]
Similarly, the term “Pancreatin-SIF” refers to a solution of simulated intestinal fluid containing pancreatin whereas “SIF-media” refers to a solution of simulated intestinal fluid without pancreatin. Pancreatin-SIF was prepared by dissolving 1 mg Pancreatin (MP Biomedicals) in 10 mL SIF media concentrate (ProSense). […]
To 76 μL of the Pepsin-SGF buffer, 4 μL of the 20 µM compound stock solution were added and incubated at 37° C. At each timepoint (0, 60, 120 and 240 minutes) the reaction was quenched with addition of 80 μL Ethanol (0.1% HCOOH). The samples were centrifuged for 20 minutes and an aliquot of the supernatant 100 μL were transferred to a LoBind-MTP plate and analyzed by LCMS/MS. The peak area response was calculated at each time point for each test compound. As internal reference, the peak area response of the same test compound at TO was calculated. The percent remaining at each timepoint was calculated based on the peak area response ratio of the test compound at TO. Time 0 was set to 100%, and all later timepoints were calculated relative to time 0.

human IL-23R = target: T1, human IL-23R (Homo sapiens, UniProt Q5VWK5); assay: Human ELISA IL-23/IL-23R binding inhibition; details: human IL-23 coated, recombinant human IL-23R-Fc chimera
T1 sequence (Q5VWK5 24-355 limits assumed): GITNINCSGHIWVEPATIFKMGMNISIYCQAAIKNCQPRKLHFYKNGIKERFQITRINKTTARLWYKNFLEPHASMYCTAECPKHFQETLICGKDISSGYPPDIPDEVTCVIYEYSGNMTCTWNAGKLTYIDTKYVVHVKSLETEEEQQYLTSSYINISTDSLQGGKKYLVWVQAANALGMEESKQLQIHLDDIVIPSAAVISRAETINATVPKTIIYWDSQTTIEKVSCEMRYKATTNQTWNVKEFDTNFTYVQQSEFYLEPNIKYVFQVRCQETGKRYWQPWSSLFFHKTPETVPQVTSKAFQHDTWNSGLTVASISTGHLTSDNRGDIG
Procedure, shortened: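 Plates coated with human IL-23 at 1 μg/ml overnight at 4° C; serially diluted peptides added with recombinant human IL-23R-Fc at 0.1 μg/ml final, 60 min at RT. Bound receptor detected with anti-human IgG1-HRP and a fluorogenic peroxidase substrate.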

[2] = tested on: IL-23 induced STAT3 signaling; assay: Inhibition of IL-23 induced STAT3 signaling in HEK-Blue IL-23 cells (SEAP reporter); format: cell-based; details: human IL-23 0.25 ng/ml, read-out: Inhibition of IL-23 induced pSTAT3 (IC50 nM)
Procedure, shortened: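 HEK-Blue IL-23 cells (10,000/well) preincubated 60 min at 37 °C with serially diluted compound, then stimulated overnight with human IL-23 (0.25 ng/ml final). STAT3-driven SEAP in supernatant read with QUANTI-Blue after 45 min at room temperature, OD 620-655 nm; dose-response fitted.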

COc1ccc(C[C@@H]2NC(=O)C(C)(C)NC(=O)[C@H](CCC(N)=O)NC(=O)[C@H](Cc3c[nH]c4ccccc34)NC(=O)[C@H]([C@@H](C)O)NC(=O)[C@H](CC(N)=O)NC(=O)[C@H](NC(C)=O)CCCCNC(=O)C[C@@H](C(=O)N[C@@H](CC(N)=O)C(=O)N[C@@H](CC(N)=O)C(N)=O)NC(=O)C(C)(C)NC(=O)[C@H](Cc3cccc4ccccc34)NC2=O)cc1 [compound 21] (Ac-[dK]NTWQ[Aib]Y(Me)[1Nal][Aib]DNN-NH2; lactam 1-10)
FaSSIF 0 (min), remaining percentage of peptide compound [1]: 100%
remaining at 1 h, 1 μM [1]: 96%
remaining at 2 h, 1 μM [1]: 98%
remaining at 4 h, 1 μM [1]: 95%
IC50 (human IL-23R): 16.9 nM
IC50 [2]: 7500 nM

COc1ccc(C[C@@H]2NC(=O)[C@H](CCCNC(=N)N)NC(=O)[C@H](CCC(N)=O)NC(=O)[C@H](Cc3c[nH]c4ccccc34)NC(=O)[C@H]([C@@H](C)O)NC(=O)[C@H](CC(N)=O)NC(=O)[C@H](NC(C)=O)CCCCNC(=O)C[C@@H](C(=O)N[C@@H](CC(N)=O)C(=O)N[C@@H](CC(N)=O)C(N)=O)NC(=O)[C@H](CCCNC(N)=O)NC(=O)[C@H](Cc3cccc4ccccc34)NC2=O)cc1 [compound 18] (Ac-[dK]NTWQRY(Me)[1Nal][Cit]DNN-NH2; lactam 1-10)
FaSSIF 0 (min), remaining percentage of peptide compound [1]: 100%
remaining at 1 h, 1 μM [1]: 8%
remaining at 4 h, 1 μM [1]: 11%
IC50 (human IL-23R): 11.7 nM
IC50 [2]: 10000 nM

COc1ccc(C[C@@H]2NC(=O)[C@H](CCCNC(=N)N)NC(=O)[C@H](CCC(N)=O)NC(=O)[C@H](Cc3c[nH]c4ccccc34)NC(=O)[C@H]([C@@H](C)O)NC(=O)[C@H](CC(N)=O)NC(=O)[C@H](NC(C)=O)CC(=O)NCCC[C@@H](C(=O)N[C@@H](CC(N)=O)C(=O)N[C@@H](CC(N)=O)C(N)=O)NC(=O)C(C)(C)NC(=O)[C@H](Cc3ccc4ccccc4c3)NC2=O)cc1 [compound 13] (Ac-[dD]NTWQRY(Me)[2Nal][Aib][Orn]NN-NH2; lactam 1-10)
FaSSIF 0 (min), remaining percentage of peptide compound [1]: 100%
remaining at 1 h, 1 μM [1]: 2%
remaining at 2 h, 1 μM [1]: 0%
remaining at 4 h, 1 μM [1]: 3%
IC50 (human IL-23R): 6.24 nM
IC50 [2]: 1150 nM

COc1ccc(C[C@@H]2NC(=O)[C@H](CCCNC(=N)N)NC(=O)[C@H](CCC(N)=O)NC(=O)[C@H](Cc3c[nH]c4ccccc34)NC(=O)[C@H]([C@@H](C)O)NC(=O)[C@H](CC(N)=O)NC(=O)[C@H](NC(C)=O)CCC(=O)NCCCC[C@@H](C(=O)N[C@@H](CC(N)=O)C(=O)N[C@@H](CC(N)=O)C(N)=O)NC(=O)C(C)(C)NC(=O)[C@H](Cc3cccc4ccccc34)NC2=O)cc1 [compound 11] (Ac-[dE]NTWQRY(Me)[1Nal][Aib]KNN-NH2; lactam 1-10)
FaSSIF 0 (min), remaining percentage of peptide compound [1]: 100%
remaining at 1 h, 1 μM [1]: 4%
remaining at 2 h, 1 μM [1]: 7%
remaining at 4 h, 1 μM [1]: 2%
IC50 [2]: 9280 nM
